Experimental data: article PMC5507339, “Small-molecule inhibition of pyruvate phosphate dikinase targeting the nucleotide binding site” (PLoS ONE, 2017)
“Also recorded” adds a separate entry of the source.

How the values were obtained:
[1] = molecular target: T1, PPDK from Flaveria trinervia (Flaveria trinervia, UniProt P22221); assay: biochemical; details: for IC50: 0.2 μM PPDK, inhibitor 0-200 μM, mean ± standard error; for Residual PPDK activity relative to DMSO-treated controls: inhibitor 100 μM
T1 construct: His10 (N); TEV cleavage site (N); made in house; host or cells: E. coli BL21 (DE3)
T1 sequence (P22221 80-953): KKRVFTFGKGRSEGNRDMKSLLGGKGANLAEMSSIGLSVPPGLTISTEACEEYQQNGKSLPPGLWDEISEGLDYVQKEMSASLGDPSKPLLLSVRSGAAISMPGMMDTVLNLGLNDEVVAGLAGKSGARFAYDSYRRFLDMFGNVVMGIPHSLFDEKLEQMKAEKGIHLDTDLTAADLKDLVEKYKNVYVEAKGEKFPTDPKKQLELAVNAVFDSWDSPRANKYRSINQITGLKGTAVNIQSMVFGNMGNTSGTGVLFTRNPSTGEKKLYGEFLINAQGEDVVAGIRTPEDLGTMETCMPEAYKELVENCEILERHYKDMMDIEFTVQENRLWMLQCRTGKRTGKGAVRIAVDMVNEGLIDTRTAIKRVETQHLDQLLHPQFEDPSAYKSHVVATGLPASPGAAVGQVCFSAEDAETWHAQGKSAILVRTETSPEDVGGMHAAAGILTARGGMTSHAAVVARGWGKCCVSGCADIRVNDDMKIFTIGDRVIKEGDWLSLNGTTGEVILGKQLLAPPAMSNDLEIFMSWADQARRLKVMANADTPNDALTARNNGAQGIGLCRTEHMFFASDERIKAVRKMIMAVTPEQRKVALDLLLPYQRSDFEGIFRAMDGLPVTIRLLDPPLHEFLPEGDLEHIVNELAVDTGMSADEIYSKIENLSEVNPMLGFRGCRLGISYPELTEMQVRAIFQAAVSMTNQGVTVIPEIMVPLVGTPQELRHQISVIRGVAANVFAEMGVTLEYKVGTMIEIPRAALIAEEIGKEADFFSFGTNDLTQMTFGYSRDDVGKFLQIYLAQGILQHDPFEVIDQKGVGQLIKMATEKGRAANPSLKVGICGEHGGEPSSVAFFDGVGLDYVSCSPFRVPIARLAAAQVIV
Method: Heterologous gene expression and purification of the recombinant PPDK were performed as described in [11]. A modified pET-16b vector (Merck, Darmstadt, GER) which contained an N-terminal histidine10 tag, followed by a TEV cleavage site and the sequence encoding for PPDK from Flaveria trinervia (EMBL X75516) was used for heterologous expression in E. coli strain BL21 (DE3). Transformed cells were grown to an OD600 of 0.6–0.8 in 2YT medium at 30°C before expression was induced by the addition of 0.1 mM isopropyl-β-D-1-thiogalactopyranoside. Cells were harvested after over night incubation at 30°C and 180 rpm. Preceding purification, cells were resuspended in lysis buffer (50 mM Tris/HCl pH 7.5, 300 mM NaCl, 10 mM imidazole, 10 mM MgSO4, 10% (w/v) glycerol, 5 mM DTT, 0.002% (w/v) phenylmethanesulfonylfluoride) and disrupted using a cell disruptor (Constant Systems). PPDK was purified using a nickel affinity chromatography column (GE Healthcare, Munich, GER). Purification (50 mM Tris/HCl pH 7.5, 300 mM NaCl, 10 mM MgSO4, 10% (w/v) glycerol, 5 mM DTT) and elution buffer (50 mM Tris/HCl pH 7.5, 300 mM NaCl, 500 mM imidazole, 10 mM MgSO4, 10% (w/v) glycerol, 5 mM DTT) were used for further purification steps. PPDK bound to the column was washed in steps of 50 mM, 150 mM and 200 mM imidazole, before final elution with 500 mM imidazole. Protein-rich fractions were pooled and a PD-10 desalting column (GE Healthcare) was used to change the elution buffer for assay buffer (100 mM Tris/HCl pH 8.0, 10 mM MgCl2, 2.5 mM KH2PO4, 6 mM glucose-6-phosphate, 5 mM NaHCO3, 0.1 mM EDTA, 5 mM DTT). The buffer-exchanged sample was eventually concentrated by ultrafiltration (30 kDa cutoff, Millipore).
Activity of purified PPDK was measured according to Salahas et al., Doyle et al. in a 96 well microtiter plate layout by a coupled spectrophotometrical assay. In this assay, the carboxylation of PEP by PEPC is linked to the oxidation of NADH by NADH-malate dehydrogenase (NADH-MDH). PEP is formed by PPDK via ATP-driven phosphorylation of pyruvate. Eventually, the consumption of one molecule NADH is equivalent to the formation of one molecule of PEP by PPDK. The assay was performed in a sample volume of 100 μL at 30°C in a M200 plate reader (Tecan, Crailsheim, GER). 0.2 μM PPDK were mixed with 0.2 mM NADH, 2.5 mM sodium pyruvate, 0.8 U bacterial PEPC (Sigma-Aldrich, Darmstadt, GER) and 2 U NADH-MDH (Sigma-Aldrich). The reaction mixture was filled up to a total volume of 100 μL per sample with assay buffer (100 mM Tris/HCl pH 8.0, 10 mM MgCl2, 2.5 mM KH2PO4, 6 mM glucose-6-phosphate, 5 mM NaHCO3, 0.1 mM EDTA, 5 mM DTT). PPDK was pre-incubated for 20 min at 30°C to ensure full activity. Inhibitors were dissolved in water free dimethyl sulfoxide (DMSO) with a final concentration of 10 mM and were added prior to adjusting the final sample volume. To account for possible effects of DMSO on PPDK activity, the solvent was added to the controls in an amount equal to the largest DMSO concentration used in the experiments. Incubation time of the final sample mixture including inhibitors and PPDK was 15 min. Initial comparative screening was perfomed using 100 μM of each compound. The absorbance at 340 nm was recorded for 30 s with an interval of 300 ms. […] A four-parameter log-logistic dose-response curve was then globally fitted to the individual replicates using the R software collection and the R package “drc” [28] as proposed by assessment of Akaike’s information criterion (AIC). PPDK was incubated for 10 min with the inhibitors before each measurement. To exclude PEPC or NADH-MDH inhibition by the selected compounds, the initial screening assay was repeated in triplicates for those compounds without adding PPDK and starting the reaction by injection of PEP instead of ATP.

[2] = molecular target: receptor tyrosine kinases; parameters: method as in PMID 16648571; details: ATP-competitive; cited from earlier work
Zea mays leaf slices = assay: Inhibition of oxygen evolution during C4 photosynthesis, leaf slices, Clark-type O2 electrode; assay type: cell-based; details: for inhibition at 20 µg/mL: 20 μg mL^−1; for inhibition at 40 µg/mL: 40 μg mL^−1
Method: Oxygen (O2) evolution, driven by the C4 acid cycle, was measured according to refs [21, 22, 31]. The reaction chamber of a Clark-type O2 electrode (Hansatech, Norfolk, UK) was filled with 1 mL of degassed buffer containing 0.33 M sorbitol, 2.5 mM NaH2PO4, 2.5 mM MgCl2, 25 mM HEPES/KOH pH 7.5, 50 μM MnCl2 and 2.5 mM dithiothreitol (DTT). An area sized approx. 1 cm^2 was cut from a mature leaf of the C4 model plant Zea mays and processed into slices of ∼ 1 mm width. The leaf slices were added to the electrode chamber and the recording of O2 evolution was started while keeping the chamber in the dark. The O2 evolution rate recorded in this period was later substracted from the subsequently recorded rates to account for the electrode drift. Once the system had stabilized, the chamber was illuminated using a Schott KL 1500 electronic light source. Again, the system was given time to stabilize before the C4-driven O2 evolution was initiated by the addition of first NaHCO3 and then pyruvate in final concentrations of 4 mM each. […] All measurements were done in triplicates.
Directly following the measurement, leaf slices were removed from the chamber and transferred to 1 mL of 80% acetone (v/v) for chlorophyll extraction. The samples were kept at 4°C in the dark for 48 h.

Zea mays PPDK = system: Zea mays PPDK; parameters: method as in earlier work; details: PPDK from leaf extracts; ref 21 (Haines et al.); cited from earlier work

Cc1ccc(F)c(NC(=O)Nc2ccc(-c3cccc4[nH]nc(N)c34)cc2)c1 [ABT-869]
IC50 [1]: 11.2 ± 0.24 µM | Residual PPDK activity relative to DMSO-treated controls [1]: below 30% | IC50 [2]: 0.004 µM

O=C1NC(=O)C(c2c[nH]c3ccccc23)=C1c1c[nH]c2ccccc12 [BIM IV, bisindolylmaleimide IV]
IC50 [1]: 0.76 ± 0.13 µM | inhibition at 20 µg/mL (Zea mays leaf slices): 20% | inhibition at 40 µg/mL (Zea mays leaf slices): 36%

CN(C)CC1CCn2c(c(C3=C(c4cn(C)c5ccccc45)C(=O)NC3=O)c3ccccc32)C1 (stereo not shown) [BIM XI, bisindolylmaleimide XI]
Effect on PPDK activity ([1]; initial screening): did not show any effect; also recorded: no effect

COc1ccc2c(c1)c(C1=C(c3c[nH]c4ccccc34)C(=O)NC1=O)cn2CCCN(C)C [Go6983]
IC50 [1]: 1.5 ± 0.6 µM | inhibition at 20 µg/mL (Zea mays leaf slices): 19% | inhibition at 40 µg/mL (Zea mays leaf slices): 29%

CN1C(=O)C(c2c[nH]c3ccccc23)=C(c2c[nH]c3ccccc23)C1=O [bisindolylmaleimide V]
Residual PPDK activity relative to DMSO-treated controls [1]: 15%

C=C1CCC[C@H]2[C@](C)(CC3=C(O)C(=O)C=C(OC)C3=O)[C@@H](C)CC[C@]12C [ilimaquinone]
IC50 [1]: 740 ± 566 µM | IC50 (Zea mays PPDK): 292 ± 23 µM
